Legend:
[1] = isoelectric point of the purified polypeptide; format: physicochemical
anti-PS2 antibodies = assay: immunoreactivity to anti-PS2 antibodies; format: binding
[2] = test system: IgG fraction containing anti-hEGF antibody; assay: enzyme immuno assay (EIA) for human EGF, plate sensitized with IgG fraction containing anti-hEGF antibody; format: binding, rabbit; details: culture solutions of MCF7, MKN-45 and KATO-III; different from EGF
Excerpt: In order to examine the relationship between the MCF7 cells thus secreting various growth factors and epidermal growth factor (hereinafter referred to as EGF) which is a kind of growth factor, we established an enzyme immuno assay (hereinafter referred to as EIA) which can assay human EGF, and tried to determine it in the culture solutions of MCF7 and human gastric cancer cells MKN-45 and KATO-III. […] It is conceivable that this substance was detected because another antibody was present in the enzyme immuno assay in addition to an antibody against EGF.
An assay system used for detecting the polypeptide of the present invention was prepared in the following manner.
200 μg/ml of an IgG fraction (purified from rabbit serum) containing anti-hEGF antibody was added to 50 mM of Tris-HCl (pH 8.0), and the mixture was poured to a microplate having 96 wells (Sumitomo Bakelite Co.) in an amount of 100 μl/well. After the reaction was conducted at 37° C. for 3 hours, the solution was discarded. Buffer A was further added thereto and blocking was carried out. […]
A plate was washed once with 200 μl/well of buffer A just prior to the use thereof. […] The resultant product was transferred to a Dynamic™ microfluor (for fluorescent enhancer), and the fluorescence was measured with an immunoreader (365 nm excitation, 415 nm fluorescence measurement). […]

## immunoreactive polypeptide: 60-amino-acid polypeptide, N-terminus EAQ, secreted by cancer cells MCF-7, MKN-45 or KATO-III; part of the PS2 precursor protein (EAQTETCTVAPRERQNCGFPGVTPSQCANKGCCFDDTVRGVPWCFYPNTIDVPPEEECEF; UniProt P04155 25-84, looked up)
[1]
  isoelectric point: 4.3
anti-PS2 antibodies
  immunoreactivity to anti-PS2 antibodies: immunoreactive to anti-PS2 antibodies
[2]
  immunoreactivity in the EIA: immunoreactive to the EIA

Reference: patent US5202417A, “60-amino-acid polypeptide” (Takeda Chemical Industries, Ltd., priority 1989, dated 1993)
